This note sets out measurements from US7459444B2, “Inhibitors of chymase” (Janssen Pharmaceutica N.V., priority 2004, dated 2008).

In the assay the target is T1, human skin chymase (Homo sapiens, UniProt P23946).
T1 construct: using human skin chymase (Cortex Biochem); purchased Cortex Biochem
T1 sequence (P23946 22-247): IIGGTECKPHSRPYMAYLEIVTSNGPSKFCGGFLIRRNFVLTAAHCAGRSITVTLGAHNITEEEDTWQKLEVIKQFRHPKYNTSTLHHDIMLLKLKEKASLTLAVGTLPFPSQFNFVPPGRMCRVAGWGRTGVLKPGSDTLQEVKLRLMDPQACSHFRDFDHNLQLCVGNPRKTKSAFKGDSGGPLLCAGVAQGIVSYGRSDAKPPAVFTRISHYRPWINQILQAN
Briefly: Enzyme-catalyzed hydrolysis assay (chymase inhibition). In kind it is biochemical. The following applies: 10 nM enzyme, 0.7 mM Suc-Ala-Ala-Pro-Phe-pNa, pH 8.0, 37° C., 30 minutes. The procedure: Enzyme-catalyzed hydrolysis rates were measured spectro-photometrically using human skin chymase (Cortex Biochem), a chromogenic substrate (Suc-Ala-Ala-Pro-Phe-pNa) (Bachem) in aqueous buffer (450 mM Tris, 1800 mM NaCl, pH 8.0), and a microplate reader (Molecular Devices). […] Percent inhibition was calculated by comparing the initial reaction slopes of the samples without inhibitor to those with inhibitor. IC50 values were determined using a four parameter fit logistics model. The term “NT” indicates a compound that was not tested.
A word on the IC50: it is the concentration that gives 50% inhibition. A low value points to inhibition by little substance. `CP(=O)(O)C(C(=O)N/C=C/c1ccc(F)cc1F)c1csc2ccc(Cl)cc12` (centres unmarked) [Cpd 171] showed an IC50 of 0.025 ± 0.01 µM.

As to `O=C(Nc1cc2ccccc2cc1C(=O)N1CCC(n2nnc3ccccc32)CC1)C(c1cccc2ccccc12)P(=O)(O)O` (centres unmarked) [Cpd 100], the IC50 is 3 ± 1.43 µM.

As to `Cn1cc(C(C(=O)Nc2ccc3ccccc3c2)P(=O)(O)O)c2cccnc21` (centres unmarked) [Cpd 116], the IC50 came to 5.4 µM.

Consider `O=C(Nc1ccc2ccccc2c1)C(c1cn(CC2CC2)c2ccccc12)P(=O)(O)O` (centres unmarked) [Cpd 62], for which the IC50 worked out at 0.82 ± 0.5 µM. Compared with the last compound, the IC50 is about 6.6-fold lower.

Compound `O=C(Nc1ccc2ccccc2c1)C(c1csc2ccc(Cl)cc12)S(=O)(=O)O` (centres unmarked) [Cpd 50, [(5-Chloro-benzo[b]thiophen-3-yl)-(naphthalen-2-ylcarbamoyl)-methyl]-sulfonic acid] registered an IC50 of 0.43 ± 0.15 µM.

As to `O=C(Nc1ccc2ccccc2c1)OCc1cc2ccccc2cc1NC(=O)C(c1cccc2ccccc12)P(=O)(O)O` (centres unmarked) [Cpd 105], the midpoint of inhibition, the IC50, lay at 4.1 µM.

Compound `Cn1cc(C(C(=O)Nc2ccc3ccccc3c2)P(=O)(O)O)c2cc(Br)ccc21` (centres unmarked) [Cpd 13] registered an IC50 of 0.04 ± 0.02 µM. Compared with the last compound, the IC50 is about 100-fold lower.

`CC(=O)Oc1ccccc1/C=C/NC(=O)C(c1csc2ccc(Cl)cc12)P(C)(=O)O` (centres unmarked) [Cpd 148] yielded an IC50 of 0.23 ± 0.04 µM. This IC50 is about 5.8-fold higher than that of the compound before.

In the case of `CC(C)n1cc(C(C(=O)Nc2ccc3ccccc3c2)P(=O)(O)O)c2ccccc21` (centres unmarked) [Cpd 77], the IC50 was found to be 1.48 ± 0.45 µM.

As to `O=C(Nc1cc2ccccc2cc1CNCc1ccccc1)C(c1cccc2ccccc12)P(=O)(O)O` (centres unmarked) [Cpd 107], the IC50 was determined as 4.3 ± 0.03 µM.

`O=P(O)(O)C(C(=S)Nc1ccc2ccccc2c1)c1csc2ccc(Cl)cc12` (centres unmarked) [Cpd 45, [(5-Chloro-benzo[b]thiophen-3-yl)-(naphthalen-2-ylthiocarbamoyl)-methyl]-phosphonic acid]: it took 0.371 ± 0.11 µM to reach half-maximal inhibition (IC50).

In turn, `O=C(Nc1cc2ccccc2cc1C(=O)N1CCC(n2c(=O)[nH]c3ccc(Cl)cc32)CC1)C(c1cccc2ccccc12)P(=O)(O)O` (centres unmarked) [Cpd 60, ({3-[4-(6-Chloro-2-oxo-2,3-dihydro-benzoimidazol-1-yl)-piperidine-1-carbonyl]-naphthalen-2-ylcarbamoyl}-naphthalen-1-yl-methyl)-phosphonic acid] yielded an IC50 of 0.663 µM. This IC50 lies about 1.8-fold higher than the previous one.

Take `O=C(Nc1cc2ccccc2s1)C(c1cccc2ccccc12)P(=O)(O)O` (centres unmarked) [Cpd 64]: the IC50 worked out at 0.83 ± 0.08 µM.

On to `O=C(Nc1cc2ccccc2cc1C(=O)N1CCC(S(=O)(=O)c2ccccc2)C1)C(c1cccc2ccccc12)P(=O)(O)O` (centres unmarked) [Cpd 103], for which the midpoint of inhibition, the IC50, lay at 3.63 µM.

Regarding `COCCCP(=O)(O)C(C(=O)Nc1ccc2ccccc2c1)c1csc2ccc(Cl)cc12` (centres unmarked) [Cpd 34], the IC50 is 0.22 ± 0.01 µM. This IC50 is about 16-fold lower than that of the compound before.

Take `CP(=O)(O)C(C(=O)N/C=C/c1cccc(N)c1)c1csc2ccc(Cl)cc12` (centres unmarked) [Cpd 172]: the IC50 was 0.041 ± 0.02 µM. Against the preceding compound, the IC50 is about 5.4-fold lower.

In the case of `CP(=O)(O)C(C(=O)Nc1cc2ccccc2o1)c1csc2ccc(Cl)cc12` (centres unmarked) [Cpd 146], the IC50 is 0.11 µM.

The compound `CP(=O)(O)C(C(=O)N/C=C/c1cc(F)ccc1F)c1csc2ccc(Cl)cc12` (centres unmarked) [Cpd 169] displayed an IC50 of 0.042 µM.

The compound `CP(=O)(O)C(C(=O)NC=Cc1ccccc1[N+](=O)[O-])c1csc2ccc(Cl)cc12` (centres unmarked) [Cpd 147] yielded an IC50 of 1.44 ± 0.48 µM. Compared with the last compound, the IC50 is about 34-fold higher.

`CP(=O)(O)C(C(=O)N/C=C/c1ccccc1O)c1csc2ccc(Cl)cc12` (centres unmarked) [Cpd 149, {(5-Chloro-benzo[b]thiophen-3-yl)-[2-(2-hydroxy-phenyl)-vinylcarbamoyl]-methyl}-methyl-phosphinic acid]: 0.043 µM corresponded to half-maximal inhibition (IC50).

`O=C(Nc1cc2ccccc2cc1C(=O)N1CCC(c2ccccc2)C1)C(c1cccc2ccccc12)P(=O)(O)O` (centres unmarked) [Cpd 87] had an IC50 of 2.04 µM.

Consider `CN(C(=O)c1cc2ccccc2cc1NC(=O)C(c1cccc2ccccc12)P(=O)(O)O)C1CCCC1` (centres unmarked) [Cpd 91], for which half-maximal inhibition (IC50) was put at 2.32 µM.

In the case of `CP(=O)(O)C(C(=O)N/C=C/c1cccc([N+](=O)[O-])c1)c1csc2ccc(Cl)cc12` (centres unmarked) [Cpd 166], the IC50 is 0.0387 ± 0.02 µM. This IC50 is about 60-fold lower than that of the compound before.

With `CP(=O)(O)C(C(=O)N/C=C/c1ccccc1Cl)c1csc2ccc(Cl)cc12` (centres unmarked) [Cpd 160], the IC50 amounted to 0.065 ± 0.02 µM.

For `COc1ccc(CCN(C)C(=O)c2cc3ccccc3cc2NC(=O)C(c2cccc3ccccc23)P(=O)(O)O)cc1OC` (centres unmarked) [Cpd 115], the IC50 came out at 5.36 µM.

Turning to `CP(=O)(O)C(C(=O)N/C=C/c1ccccc1Br)c1csc2ccc(Cl)cc12` (centres unmarked) [Cpd 164], it took 0.1 ± 0.02 µM to reach half-maximal inhibition (IC50).

With `O=C(Nc1cc2ccccc2cc1C(=O)N1CCC(n2c(=O)[nH]c3ccccc32)CC1)C(c1cccc2ccccc12)P(=O)(O)O` (centres unmarked) [Cpd 93], the IC50 is 2.7 µM.

Compound `Cn1cc(C(C(=O)Nc2ccc3ccccc3c2)P(=O)(O)O)c2cc(C#N)ccc21` (centres unmarked) [Cpd 65] registered an IC50 of 0.84 ± 0.19 µM.

Consider `O=C(Nc1cc2ccccc2cc1C(=O)N1CCCC1c1ccccc1)C(c1cccc2ccccc12)P(=O)(O)O` (centres unmarked) [Cpd 131], for which the IC50 came out at 7.68 µM.

With `COc1ccc(C=CNC(=O)C(c2csc3ccc(Cl)cc23)P(=O)(O)O)cc1OC` (centres unmarked) [Cpd 49], the IC50 worked out at 0.43 ± 0.09 µM.

On to `O=C(Nc1ccc2[nH]ccc2c1)C(c1cccc2ccccc12)P(=O)(O)O` (centres unmarked) [Cpd 129], for which the IC50 is 7.4 µM.

“({3-[(1-Benzoyl-piperidin-4-ylamino)-methyl]-naphthalen-2-ylcarbamoyl}-naphthalen-1-yl-methyl)-phosphonic acid [Cpd 44]”: the IC50 is 0.35 ± 0.22 µM.

`O=C(Nc1cc2ccccc2cn1)C(c1cccc2ccccc12)P(=O)(O)O` (centres unmarked) [Cpd 137] returned an IC50 of 8.66 µM.

`CP(=O)(O)C(C(=O)NC=Cc1ccc(C#N)cc1)c1csc2ccc(Cl)cc12` (centres unmarked) [Cpd 157] displayed an IC50 of 11 ± 1.2 µM. This IC50 and that of the compound before are within 1.5-fold of each other.

Turning to `COC(=O)c1cc2ccccc2cc1NC(=O)C(c1cccc2ccccc12)P(=O)(O)O` (centres unmarked) [Cpd 75, 3-(2-Naphthalen-1-yl-2-phosphono-acetylamino)-naphthalene-2-carboxylic acid methyl ester], the IC50 was found to be 1.4 ± 0.6 µM.

`Cc1ccc2scc(C(C(=O)Nc3ccc4ccccc4c3)P(=O)(O)O)c2c1` (centres unmarked) [Cpd 5] showed an IC50 of 0.019 ± 0.005 µM.

`CP(=O)(O)C(C(=O)NC=Cc1cccc(C(F)(F)F)c1)c1csc2ccc(Cl)cc12` (centres unmarked) [Cpd 152] registered an IC50 of 0.13 ± 0.03 µM. Against the preceding compound, the IC50 is about 6.8-fold higher.

For the compound `O=C(N/C=C/c1ccccc1)C(c1cccc2ccccc12)P(=O)(O)O` (centres unmarked) [Cpd 37], it took 0.25 ± 0.12 µM to reach half-maximal inhibition (IC50).

`CP(=O)(O)C(C(=O)N/C=C/c1ccccn1)c1csc2ccc(Cl)cc12` (centres unmarked) [Cpd 150] came in with an IC50 of 0.091 ± 0.02 µM.

`O=C(Nc1cc2ccccc2cc1NCCCCCc1ccccc1)C(c1cccc2ccccc12)P(=O)(O)O` (centres unmarked) [Cpd 110] displayed an IC50 of 4.45 µM.

Consider `O=C(Nc1ccc2ccccc2c1)C(c1csc2ccc(Cl)cc12)P(=O)(O)CCCc1ccccc1` (centres unmarked) [Cpd 48], for which the half-maximal inhibitory concentration (IC50) came out at 0.421 ± 0.151 µM.

`CP(=O)(O)C(C(=O)NC=Cc1ccccc1N)c1csc2ccc(Cl)cc12` (centres unmarked) [Cpd 151, [[2-(2-Amino-phenyl)-vinylcarbamoyl]-(5-chloro-benzo[b]thiophen-3-yl)-methyl]-methyl-phosphinic acid] returned an IC50 of 0.4 ± 0.12 µM.

`O=C(Nc1cc2ccccc2cc1C(=O)N1CCC(c2nc3ccccc3s2)CC1)C(c1cccc2ccccc12)P(=O)(O)O` (centres unmarked) [Cpd 113] came in with an IC50 of 4.8 ± 1.69 µM. Compared with the last compound, the IC50 is about 12-fold higher.

The compound `O=C(Nc1cc2ccccc2cc1OCC=Cc1ccccc1)C(c1cccc2ccccc12)P(=O)(O)O` (centres unmarked) [Cpd 121] showed an IC50 of 5.9 µM.

As to `O=C(Nc1ccc2ncsc2c1)C(c1csc2ccc(Cl)cc12)P(=O)(O)O` (centres unmarked) [Cpd 30], the IC50 was found to be 0.17 ± 0.01 µM.

For the compound `Nc1ccc(/C=C/NC(=O)C(c2csc3ccc(Cl)cc23)P(=O)(O)O)cc1` (centres unmarked) [Cpd 12], the half-maximal inhibitory concentration (IC50) turned out to be 0.038 ± 0.013 µM.

Turning to `COc1ccccc1/C=C/NC(=O)C(c1csc2ccc(Cl)cc12)P(C)(=O)O` (centres unmarked) [Cpd 145], the IC50 is 0.035 ± 0.02 µM.

Compound `CP(=O)(O)C(C(=O)NC=Cc1ccccc1NC(N)=O)c1csc2ccc(Cl)cc12` (centres unmarked) [Cpd 158, {(5-Chloro-benzo[b]thiophen-3-yl)-[2-(2-ureido-phenyl)-vinylcarbamoyl]-methyl}-methyl-phosphinic acid] gave an IC50 of 6 ± 1.9 µM.

For `COc1ccc2c(c1)c(C(C(=O)Nc1ccc3ccccc3c1)P(=O)(O)O)cn2C` (centres unmarked) [Cpd 74], the IC50 amounted to 1.39 ± 0.554 µM.

Turning to `CN(Cc1ccccc1)C(=O)c1cc2ccccc2cc1NC(=O)C(c1cccc2ccccc12)P(=O)(O)O` (centres unmarked) [Cpd 111], the IC50 is 4.62 µM.

In the case of `O=C(COc1cc2ccccc2cc1NC(=O)C(c1cccc2ccccc12)P(=O)(O)O)NCCCc1ccccc1` (centres unmarked) [Cpd 130], it took 7.44 ± 3.73 µM to reach half-maximal inhibition (IC50).

`CP(=O)(O)C(C(=O)N/C=C/c1cccc(F)c1)c1csc2ccc(Cl)cc12` (centres unmarked) [Cpd 15] came in with an IC50 of 0.052 ± 0.015 µM.

In turn, `CP(=O)(O)C(C(=O)N/C=C/c1cccc(OC(F)(F)F)c1)c1csc2ccc(Cl)cc12` (centres unmarked) [Cpd 153] gave an IC50 of 0.06 ± 0.01 µM.

Compound `Nc1nc2ccc(NC(=O)C(c3csc4ccc(Cl)cc34)P(=O)(O)O)cc2s1` (centres unmarked) [Cpd 69, [(5-Chloro-benzo[b]thiophen-3-yl)-(2-amino-4-benzothioazol-6-ylcarbamoyl)-methyl]-phosphonic acid] registered a half-inhibitory concentration (IC50) of 0.93 ± 0.95 µM.

On to `CP(=O)(O)C(C(=O)N/C=C/c1cc(F)cc(F)c1)c1csc2ccc(Cl)cc12` (centres unmarked) [Cpd 162], for which the IC50 is 0.009 µM.

In turn, `COC(=O)COc1c(NC(=O)C(c2cccc3ccccc23)P(=O)(O)O)ccc2ccccc12` (centres unmarked) [Cpd 134, [2-(2-Naphthalen-1-yl-2-phosphono-acetylamino)-naphthalen-1-yloxy]-acetic acid methyl ester] had an IC50 of 8.11 ± 4.75 µM.

As for `O=C(Nc1ccc2c(c1)Cc1ccccc1-2)C(c1cccc2ccccc12)P(=O)(O)O` (centres unmarked) [Cpd 106], inhibition was half-maximal at 4.3 µM (IC50).

In turn, `CP(=O)(O)C(C(=O)N/C=C/c1c(F)cccc1F)c1csc2ccc(Cl)cc12` (centres unmarked) [Cpd 156] gave an IC50 of 0.036 ± 0.01 µM.

`CP(=O)(O)C(C(=O)N/C=C/c1ccccc1NC(=O)NC(N)=O)c1csc2ccc(Cl)cc12` (centres unmarked) [Cpd 159] returned an IC50 of 3 ± 0.19 µM.
